Experimental data from ChEMBL document CHEMBL3352522 (Bioorg Med Chem Lett, 2014).
Active and inactive are the calls of the source. No cut-off for these calls is given here.

Legend:
[1] = molecular target: T1, Peroxisome proliferator-activated receptor alpha (Homo sapiens, UniProt Q07869); test: Activation of human PPARalpha ligand binding domain expressed in COS7 cells by luciferase reporter gene assay; assay type: cell-based, COS-7
T1 sequence (Q07869 whole entry): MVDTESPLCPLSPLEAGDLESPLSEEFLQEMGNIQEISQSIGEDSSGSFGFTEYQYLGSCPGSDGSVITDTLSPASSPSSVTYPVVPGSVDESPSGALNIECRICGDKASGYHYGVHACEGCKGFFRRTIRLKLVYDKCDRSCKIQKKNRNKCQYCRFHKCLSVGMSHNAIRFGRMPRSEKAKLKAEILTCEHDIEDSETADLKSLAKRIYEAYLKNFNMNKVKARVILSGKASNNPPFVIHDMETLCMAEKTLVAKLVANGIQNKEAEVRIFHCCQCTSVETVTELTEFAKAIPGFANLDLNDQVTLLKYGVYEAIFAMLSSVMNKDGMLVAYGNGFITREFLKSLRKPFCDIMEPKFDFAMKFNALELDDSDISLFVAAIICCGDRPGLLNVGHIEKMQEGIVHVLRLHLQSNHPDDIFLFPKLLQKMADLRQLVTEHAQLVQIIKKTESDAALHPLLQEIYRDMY

[2] = molecular target: T2, Peroxisome proliferator-activated receptor gamma (Homo sapiens, UniProt P37231); test: Activation of human PPARgamma ligand binding domain expressed in COS7 cells by luciferase reporter gene assay; assay type: cell-based, COS-7
T2 sequence (P37231 whole entry): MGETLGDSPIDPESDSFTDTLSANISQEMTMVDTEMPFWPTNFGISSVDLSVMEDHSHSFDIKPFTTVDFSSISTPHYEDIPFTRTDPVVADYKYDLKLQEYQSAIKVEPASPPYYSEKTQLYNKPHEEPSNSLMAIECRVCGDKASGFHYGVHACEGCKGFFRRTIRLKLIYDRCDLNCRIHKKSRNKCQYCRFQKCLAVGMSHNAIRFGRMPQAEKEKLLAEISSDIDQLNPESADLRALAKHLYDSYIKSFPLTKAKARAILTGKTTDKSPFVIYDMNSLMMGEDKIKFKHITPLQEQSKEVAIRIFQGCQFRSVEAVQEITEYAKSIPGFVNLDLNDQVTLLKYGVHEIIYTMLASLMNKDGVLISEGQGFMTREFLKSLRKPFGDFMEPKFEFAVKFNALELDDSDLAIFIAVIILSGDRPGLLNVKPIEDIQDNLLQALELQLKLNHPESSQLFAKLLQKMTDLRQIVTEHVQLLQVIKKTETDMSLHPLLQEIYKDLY

[3] = molecular target: T3, Peroxisome proliferator-activated receptor delta (Homo sapiens) (UniProt Q03181); test: Activation of human PPARbeta ligand binding domain expressed in COS7 cells assessed as residual activity at 10 uM by luciferase reporter gene assay; assay type: cell-based; details: COS-7
T3 sequence (whole entry): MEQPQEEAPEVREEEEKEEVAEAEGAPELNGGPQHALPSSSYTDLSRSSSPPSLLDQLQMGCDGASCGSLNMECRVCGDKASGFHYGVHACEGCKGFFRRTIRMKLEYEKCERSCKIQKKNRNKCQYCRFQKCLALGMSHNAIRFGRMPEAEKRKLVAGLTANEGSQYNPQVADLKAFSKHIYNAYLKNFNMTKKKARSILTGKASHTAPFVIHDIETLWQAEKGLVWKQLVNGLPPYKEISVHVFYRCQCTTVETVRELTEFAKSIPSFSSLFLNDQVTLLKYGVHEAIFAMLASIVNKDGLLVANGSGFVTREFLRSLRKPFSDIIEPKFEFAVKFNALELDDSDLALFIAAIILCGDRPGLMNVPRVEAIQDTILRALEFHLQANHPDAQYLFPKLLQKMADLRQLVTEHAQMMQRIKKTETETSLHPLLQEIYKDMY

[4] = molecular target: T4, Peroxisome proliferator-activated receptor alpha (Homo sapiens) (UniProt Q07869); test: Activation of human PPARalpha ligand binding domain expressed in COS7 cells by luciferase reporter gene assay relative to GW7647; assay type: cell-based; design: concentration or dose not given beside the values; details: COS-7
T4 sequence (whole entry): T1 sequence (Q07869 whole entry)

[5] = molecular target: T5, Peroxisome proliferator-activated receptor gamma (Homo sapiens) (UniProt P37231); test: Activation of human PPARgamma ligand binding domain expressed in COS7 cells by luciferase reporter gene assay relative to pioglitazone; assay type: cell-based; design: concentration or dose not given beside the values; details: COS-7
T5 sequence (whole entry): T2 sequence (P37231 whole entry)

[6] = molecular target: T4, Peroxisome proliferator-activated receptor alpha (Homo sapiens); test: Activation of human PPARalpha ligand binding domain expressed in COS7 cells assessed as residual activity at 6 uM by luciferase reporter gene assay relative to GW7647; assay type: cell-based; details: COS-7
[7] = molecular target: T4, Peroxisome proliferator-activated receptor alpha (Homo sapiens); test: Activation of human PPARalpha ligand binding domain expressed in COS7 cells assessed as residual activity at 10 uM by luciferase reporter gene assay relative to GW7647; assay type: cell-based; details: COS-7
[8] = molecular target: T5, Peroxisome proliferator-activated receptor gamma (Homo sapiens); test: Activation of human PPARgamma ligand binding domain expressed in COS7 cells assessed as residual activity at 10 uM by luciferase reporter gene assay relative to pioglitazone; assay type: cell-based; details: COS-7
Prostaglandin E synthase = molecular target: T6, Prostaglandin E synthase (Homo sapiens, UniProt O14684); test: Inhibition of mPGES-1 in human A549 cells microsomes assessed as reduction in PGE2 formation by RP-HPLC assay; assay type: cell-based
T6 sequence (O14684 whole entry): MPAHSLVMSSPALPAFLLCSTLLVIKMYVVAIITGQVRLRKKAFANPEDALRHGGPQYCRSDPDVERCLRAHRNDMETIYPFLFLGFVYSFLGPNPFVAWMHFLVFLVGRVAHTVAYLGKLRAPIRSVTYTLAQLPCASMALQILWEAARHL

[9] = molecular target: T7, Polyunsaturated fatty acid 5-lipoxygenase (Homo sapiens, UniProt P09917); test: Inhibition of 5-LOX in human PMNL cells assessed as reduction in 5-LOX product formation pre-incubated for 15 mins by HPLC method; assay type: cell-based
T7 sequence (P09917 whole entry): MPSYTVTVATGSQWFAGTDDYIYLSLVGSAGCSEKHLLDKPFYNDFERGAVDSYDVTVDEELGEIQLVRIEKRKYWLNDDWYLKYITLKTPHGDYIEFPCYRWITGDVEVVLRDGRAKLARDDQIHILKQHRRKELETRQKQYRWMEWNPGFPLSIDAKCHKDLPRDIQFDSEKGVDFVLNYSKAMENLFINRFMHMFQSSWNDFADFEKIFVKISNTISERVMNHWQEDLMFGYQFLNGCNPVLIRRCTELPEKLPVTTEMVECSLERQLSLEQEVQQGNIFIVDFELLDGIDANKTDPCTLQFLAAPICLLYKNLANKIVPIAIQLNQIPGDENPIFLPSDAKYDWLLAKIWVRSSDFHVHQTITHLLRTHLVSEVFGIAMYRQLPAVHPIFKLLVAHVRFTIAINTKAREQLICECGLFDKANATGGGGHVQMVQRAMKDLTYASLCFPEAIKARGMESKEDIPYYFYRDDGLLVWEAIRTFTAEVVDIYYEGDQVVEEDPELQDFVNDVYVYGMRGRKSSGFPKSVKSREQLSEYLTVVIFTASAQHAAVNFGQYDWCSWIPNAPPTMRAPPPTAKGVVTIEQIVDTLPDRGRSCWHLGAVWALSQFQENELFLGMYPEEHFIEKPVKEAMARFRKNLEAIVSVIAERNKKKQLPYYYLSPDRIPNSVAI

[10] = molecular target: T7, Polyunsaturated fatty acid 5-lipoxygenase; test: Inhibition of 5-LOX in human PMNL cells assessed as reduction in 5-LOX product formation pre-incubated for 15 mins by HPLC based cell-free assay
[11] = molecular target: T4, Peroxisome proliferator-activated receptor alpha (Homo sapiens); test: Activation of human PPARalpha ligand binding domain expressed in COS7 cells assessed as residual activity at 3 uM by luciferase reporter gene assay relative to GW7647; assay type: cell-based; details: COS-7
[12] = molecular target: T3, Peroxisome proliferator-activated receptor delta (Homo sapiens); test: Activation of human PPARbeta ligand binding domain expressed in COS7 cells assessed as residual activity at 3 uM by luciferase reporter gene assay; assay type: cell-based; details: COS-7

| Compound | EC50 [1] [µM] | Activity [3] | EC50 [2] [µM] | Activity [4] [%] | Activity [5] [%] | other results |
| --- | --- | --- | --- | --- | --- | --- |
| CCCCCCC(Sc1nc(Cl)cc(Nc2ccc3ncccc3c2)n1)C(=O)O (centres undefined) | – | – | – | – | – | IC50 [1]: 2.2 µM; IC50 [2]: 3.5 µM |
| CCCCCCC(Sc1nc(Cl)cc(Nc2cccc(C)c2C)n1)C(=O)O (centres undefined) | – | – | – | – | – | IC50 [1]: 1 µM; IC50 [2]: 3.6 µM |
| Cc1cccc(Nc2cc(Cl)nc(SC(C(=O)O)c3cccc4ccccc34)n2)c1C (centres undefined) | – | – | – | – | – | IC50 [2]: 6.2 µM; inhibition [7]: inactive |
| O=C(O)CSc1nc(OCCc2ccccc2)cc(OCCc2ccccc2)n1 | – | – | – | – | – | IC50 [2]: 3.7 µM; inhibition [7]: inactive |
| O=C(O)CSc1nc(Cl)cc(Nc2nc(-c3ccc(Cl)cc3)cs2)n1 | – | inactive | – | – | – | Activity [8]: 63%; Activity [7]: 24.7% |
| CCC(Sc1nc(Cl)cc(Nc2nc(-c3ccc(Cl)cc3)cs2)n1)C(=O)O (centres undefined) | 3.6 | inactive | 3.9 | 51 | 95 | – |
| CCCCCCC(Sc1nc(Cl)cc(Nc2nc(-c3ccccc3)c(C)s2)n1)C(=O)O (centres undefined) | – | inactive | 2.3 | – | 99 | Activity [6]: 23% |
| CCCCCCC(Sc1nc(Cl)cc(Nc2ccc(-c3ccc(C#N)cc3)cc2)n1)C(=O)O (centres undefined) | – | – | – | – | – | IC50 [1]: 0.19 µM; IC50 [2]: 1.5 µM |
| CCCCCCC(Sc1nc(Cl)cc(Nc2nc3c(s2)CCc2cc(OC)ccc2-3)n1)C(=O)O (centres undefined) | 5.4 | – | 3.7 | 229 | 86 | Activity [12]: inactive |

Now from value to compound, other results behind:

| EC50 [1] [µM] | Activity [3] | EC50 [2] [µM] | Activity [4] [%] | Activity [5] [%] | Compound | other results |
| --- | --- | --- | --- | --- | --- | --- |
| 6.5 | inactive | 7.6 | 57 | 136 | CCCCC(Sc1nc(Cl)cc(Nc2nc(-c3ccc(Cl)cc3)cs2)n1)C(=O)O (centres undefined) | – |
| – | inactive | 1.3 | – | 78 | CCCCCCC(Sc1nc(Cl)cc(Nc2nc(-c3ccc4ccccc4c3)cs2)n1)C(=O)O (centres undefined) | Activity [6]: 37% |
| 8.2 | inactive | 7.2 | 125 | 139 | CCCCCCC(Sc1nc(Cl)cc(Nc2nc(-c3ccc(C)cc3)cs2)n1)C(=O)O (centres undefined) | – |
| 5.7 | inactive | 2.9 | 70 | 94 | CCCCCCC(Sc1nc(Cl)cc(Nc2nc(-c3ccc(F)c(F)c3)cs2)n1)C(=O)O (centres undefined) | – |
| 6.6 | inactive | 6.4 | 57 | 90 | CCCCCCC(Sc1nc(Cl)cc(Nc2nc(-c3ccc(Cl)cc3)cs2)n1)C(=O)O (centres undefined) | – |
| – | inactive | 5.7 | – | 108 | CCCCCCC(Sc1nc(Cl)cc(Nc2nc(-c3ccccc3)cs2)n1)C(=O)O (centres undefined) | Activity [6]: 55.4% |
| – | inactive | – | – | – | CCCCCCC(Sc1nc(Cl)cc(Nc2nc(-c3ccc(C(=O)O)cc3)cs2)n1)C(=O)O (centres undefined) | IC50 (Prostaglandin E synthase): > 10 µM; IC50 [9]: > 10 µM; IC50 [10]: > 10 µM; Activity [8]: inactive; Activity [7]: inactive |
| – | – | 4.1 | – | 107 | CCCCCCC(Sc1nc(Cl)cc(Nc2nc(-c3ccc4c(c3)CCCC4)cs2)n1)C(=O)O (centres undefined) | Activity [11]: 52.9%; Activity [12]: inactive |
| 2.9 | inactive | 3.4 | 89.4 | 130 | CCCCCCC(Sc1nc(Cl)cc(Nc2nc(-c3ccc([N+](=O)[O-])cc3)cs2)n1)C(=O)O (centres undefined) | – |
| – | inactive | 3.6 | – | 145 | CCCCCCC(Sc1nc(Cl)cc(Nc2nc(-c3ccc(F)cc3F)cs2)n1)C(=O)O (centres undefined) | Activity [7]: 18% |
| 3.9 | – | 3.8 | 102 | 144 | CCCCCCC(Sc1nc(Cl)cc(Nc2nc(-c3ccc(Br)cc3)c(C)s2)n1)C(=O)O (centres undefined) | Activity [12]: inactive |
